Measurements as given in ChEMBL document CHEMBL1150730, “Secondary metabolites from Fusarium. Two new modified trichothecenes from Fusarium sporotrichioides MC-72083” (J Nat Prod, 1987).

Test: Toxicity in chick embryo measured per egg after 4 days
Parameters: species or system Gallus gallus
Conditions: chicken, 96 h

Question: With CC1=C[C@@H]2OC[C@]3(O)C(=O)CC[C@]3(C)[C@@]2(C)C[C@H]1O as the compound, how does the LD50 read?
Answer: The LD50 was > 10 µg.

Question: For CC1=C[C@@H]2OC[C@]3(O)C(=O)CC[C@]3(C)[C@@]2(C)C[C@@H]1O, which LD50 is on record?
Answer: The LD50 was > 10 µg.
